Test results reported in patent US20240238239A1, “METHODS AND COMPOSITIONS FOR PO[…] CELL THERAPIES” (Ojai Energetics PBC, priority 2016, published 2024).

Tested on: mice with spinal cord injuries
Test: Neural stem cell treatment after spinal cord injury (BMS scores, rotarod treadmill tests)
Type: in vivo, mouse
Details: neural stem cells pre-treated with cannabidiol 1-50 μM for 10 days plus diet supplemented with microencapsulated hemp oil composition; combined treatment
Experimental: Mouse neural stem cells expressing green fluorescent protein (GFP) under the control of a constitutive promoter are treated with either cannabidiol (1 μM, 5 μM, 10 μM or 50 μM) or vehicle control for 10 days. The cells are then transplanted directly into the spinal cords of mice with spinal cord injuries. Mice are maintained on a control diet or a diet supplemented with a microencapsulated hemp oil composition comprising cannabinoids, including cannabidiol, at concentrations similar to those used in the cell culture media. Mice are monitored daily for signs of spinal cord recovery evaluations of locomotor function based on Basso Mouse Scale (BMS) scores, a locomotor rating scale based on the frequency analyses of seven locomotor categories, and rotarod treadmill tests. Two months after the stem cell treatment the mice are sacrificed and the spinal cords are histologically examined.

C=C(C)[C@@H]1CCC(C)=C[C@H]1c1c(O)cc(CCCCC)cc1O [cannabidiol]
spinal cord recovery (locomotor function): more rapid and more robust recovery
